System: bphA gene promoter
Assay: bphA promoter-GFP fusions, benzoic acid-dependent GFP expression
Assay type: cell-based, Aspergillus nidulans strain GR5
Settings: 8 mM benzoic acid, 5 hours; full promoter (1.8 kbp) and FR6 (0.4 kbp)
Protocol: In order to determine the minimal promoter length capable of retaining benzoic acid inducibility, promoter fusions to the Green Fluorescent Protein (GFP) gene were prepared. The full bphA promoter and shorter versions of it were PCR amplified using primers BPHPFwd (5′-[…]-3′, SEQ ID NO:19), BPHFR6 (5′-[…]-3′, SEQ ID NO:20), BPH331 (5′-[…]-3′, SEQ ID NO:21), and BPHPRev (5′-[…]-3′, SEQ ID NO:22). These primers introduced HindIII restriction sites (underlined) at both ends, which allowed cloning of the fragments upstream of the GFP gene contained within the pEBFP vector (Clontech, Palo Alto, Calif.).
The promoter-GFP fusions were called pBPH-1847-GFP, pBPH-531-GFP, and pBPH331-GFP, respectively. The selectable marker Pyr4 gene from Neurospora crassa, driven by its own promoter, was used to select putative A. nidulans transformed clones. The selectable marker was PCR-amplified from the pBS-Pyr4 vector using primers PyrEcoF (5′-[…]-3′, SEQ ID NO:23), and PyrEcoR (5′-[…]-3′, SEQ ID NO:24), which introduced EcoRI restriction sites (underlined) on both ends of the product. […]
Aspergillus nidulans GR5 protoplasts were prepared according to Aramayo and Timberlake ((1993) EMBO J. 12: 2039-2048), with some modifications. […] Concentration of protoplasts was determined using a hemacytometer, and adjusted to 10^8 protoplasts per mL. […]

## O=C(O)c1ccccc1 [benzoic acid]
  GFP expression from bphA promoter-GFP fusions: able to induce GFP expression only in the presence of the inducer

— patent US7705203B2, “Benzoate inductible promoters” (Purdue Research Foundation, priority 2002, dated 2010)
